The target in test [1] is T1, HCV NS3/4A protease complex, J4L6S strain (1b genotype) (Hepatitis C virus genotype 1b, UniProt O92972, C1454S/C1711G).
T1 construct: DNA encoding the recombinant HCV NS3/4A protease complex (amino acids 1027 to 1711) for these strains; inferred from pET21b vector and Ni-NTA purification; made in house; host or cells: Escherichia coli BL21 (DE3), pET21b
Description: FRET peptide assay to monitor HCV NS3/4A proteolytic activity (J4L6S strain). The class given is biochemical. The source says: HCV NS3 protease complexes, derived from the BMS strain, H77 strain or J4L6S strain, were generated, as described below. These purified recombinant proteins were generated for use in a homogeneous assay (see below) to provide an indication of how effective compounds of the present disclosure would be in inhibiting HCV NS3 proteolytic activity.
Serum from an HCV-infected patient was obtained from Dr. T. Wright, San Francisco Hospital. An engineered full-length cDNA (compliment deoxyribonucleic acid) template of the HCV genome (BMS strain) was constructed from DNA fragments obtained by reverse transcription-PCR (RT-PCR) of serum RNA (ribonucleic acid) and using primers selected on the basis of homology between other genotype 1a strains. From the determination of the entire genome sequence, a genotype 1a was assigned to the HCV isolate according to the classification of Simmonds et al. (See P Simmonds, K A Rose, S Graham, S W Chan, F McOmish, B C Dow, E A Follett, P L Yap and H Marsdeni, J. Clin. Microbiol., 31(6):1493-1503 (1993)). […]

For test [2], the system named is human pancreatic chymotrypsin. Description: Specificity assay, chymotrypsin. The class given is biochemical. The settings on record: read-out: Chymotrypsin activity in the specificity assays (IC50). The method, then: The specificities of compounds of the present disclosure were determined against a variety of serine proteases: human neutrophil elastase (HNE), porcine pancreatic elastase (PPE) and human pancreatic chymotrypsin and one cysteine protease: human liver cathepsin B. In all cases a 96-well plate format protocol using a fluorometric Amino-Methyl-Coumarin (AMC) substrate specific for each enzyme was used as described previously (PCT Patent Application No. WO 00/09543) with some modifications to the serine protease assays. All enzymes were purchased from Sigma, EMDbiosciences while the substrates were from Bachem, Sigma and EMDbiosciences.
Compound concentrations varied from 100 to 0.4 μM depending on their potency. The enzyme assays were each initiated by addition of substrate to enzyme-inhibitor pre-incubated for 10 min at room temperature and hydrolysis to 15% conversion as measured on cytofluor. […]
The percentage of inhibition was calculated using the formula: […]

These results are taken from US20090285774A1, “Hepatitis C Virus Inhibitors” (Bristol-Myers Squibb Company, priority 2008, published 2009).

T1 sequence (O92972 1027-1711 C1454S/C1711G, one chain of several): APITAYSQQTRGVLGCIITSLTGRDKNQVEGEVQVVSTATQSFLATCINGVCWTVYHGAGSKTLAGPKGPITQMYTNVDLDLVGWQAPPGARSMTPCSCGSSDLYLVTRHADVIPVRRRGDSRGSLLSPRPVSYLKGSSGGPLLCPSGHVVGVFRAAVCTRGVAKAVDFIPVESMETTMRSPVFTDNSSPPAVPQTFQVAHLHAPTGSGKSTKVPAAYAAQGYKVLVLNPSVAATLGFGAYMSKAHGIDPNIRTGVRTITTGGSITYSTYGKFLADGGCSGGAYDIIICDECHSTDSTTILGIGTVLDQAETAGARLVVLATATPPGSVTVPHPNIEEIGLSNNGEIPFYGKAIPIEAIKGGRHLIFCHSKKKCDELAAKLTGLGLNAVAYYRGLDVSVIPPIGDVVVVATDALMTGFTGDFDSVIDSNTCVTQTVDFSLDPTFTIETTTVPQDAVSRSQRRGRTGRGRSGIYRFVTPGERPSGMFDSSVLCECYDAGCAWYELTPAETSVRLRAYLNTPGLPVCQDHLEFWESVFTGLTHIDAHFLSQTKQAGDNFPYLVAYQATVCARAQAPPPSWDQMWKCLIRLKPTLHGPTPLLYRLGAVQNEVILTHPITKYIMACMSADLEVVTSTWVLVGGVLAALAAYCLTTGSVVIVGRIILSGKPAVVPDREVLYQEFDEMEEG

One may read the IC50 as the point on the concentration scale where inhibition reaches its midpoint. For `C=C[C@@H]1C[C@]1(NC(=O)[C@@H]1C[C@@H](OC(=O)N2Cc3cccc(F)c3C2)CN1C(=O)C(Nc1cc(C)cc(C)n1)C(C)C)C(=O)NS(=O)(=O)C1CC1` (single isomer, unassigned) [Compound 2A], the IC50 stood at 1.2 nM in test [1] and 2100 nM in test [2].
